{
  "source": "paper PMC5769417",
  "about": "“Single- and Multiple-Dose Trials to Determine the Pharmacokinetics, Safety, Tolerability, and Sex Effect of Oral Ginsenoside Compound K in Healthy Chinese Volunteers” (Frontiers in Pharmacology, 2018)",
  "key": {"[1]": {"experiment": "Single-dose trial, cumulative urine excretion", "format": "in vivo, human", "conditions": "fasting, urine 0–48 h", "description": "Single-dose pharmacokinetics: In the 25 and 50 mg dose groups, serial blood samples were collected at pre-dose (t = 0) and at 0.25, 0.5, 1, 1.5, 2, 2.5, 3, 3.5, 4, 5, 6, 8, 12, 24, 36, and 48 h post-dose. From the 100 to 800 mg dose groups, blood samples were additionally collected at 72 and 96 h post-dose. Plasma was separated from whole blood by refrigerated centrifugation (3,000 rpm, 10 min), within 1 h after sampling, transferred to labeled storage tubes, and stored at −70°C prior to workup and analysis. Urine samples were collected at different time periods: 0–2, 2–4, 4–6, 6–8, 8–10, 10–12, 12–24, and 24–48 h post-dose and the volume was measured immediately after collection from each subject. We preserved 8 ml specimens into 10 ml centrifuge tubes and stored at −70°C for PK assessment.\nThe processing method of the urine samples was similar to the method used for the plasma samples. For CK, the only difference was in the mobile phase (acetonitrile: 10 mM aqueous ammonium acetate = 50:50, V/V, for plasma samples; acetonitrile: 20 mM aqueous ammonium acetate = 60:40, V/V, for urine samples; acetonitrile, Merck KGaA, Darmstadt, Germany; ammonium acetate, CNW technologies GmbH, Duesseldorf, Germany). As for 20(S)-PPD, neither the IS nor the mobile phase were the same (IS: coumarin for plasma samples and finasteride for urine samples; mobile phase was acetonitrile: 10 mM aqueous ammonium acetate = 50: 50, V/V, for plasma samples, and acetonitrile: 0.1% formic acid aqueous solution = 50: 50, V/V, for urine samples). The calibration curve range for CK was linear from 1.00 to 1002.0 ng·ml^−1 with a correlation coefficient equal to 0.9984, and from 0.15 to 54.30 ng·ml^−1 with a correlation coefficient equal to 0.9978 for 20(S)-PPD. Three levels of QC samples (2.00, 50.10, or 801.60 ng.ml^−1 CK) were prepared in urine for testing accuracy and coefficient of variations (CVs), and the values were 94–103% and 1.06–6.54%, respectively.\nExperimental observations provided the plasma CK and 20(S)-PPD concentrations vs. the time data after single-dose administration, including maximum plasma concentration (Cmax) and the time to maximum plasm concentration (Tmax). The area under the curve (AUC) from time zero to the last time point (AUClast) and the AUC extrapolated to infinity (AUCinf) were calculated using the linear trapezoidal rule. The slope (elimination rate constant, K) of the terminal phase of the plasma concentration-time profile was determined, using a weighting factor of 1, by the method of least squares (log-linear regression of at least three data points). The t1/2 was estimated as (ln2)/K. The apparent plasma clearance of the drug after oral administration (CL/F) was expressed as a function of bioavailability (F) and calculated as the dose divided by AUCinf, assuming that the complete systemic bioavailability F = 1. The apparent volume of distribution (V/F) was equal to (CL/F)/K. The mean residence time (MRT) was calculated as the area under the first moments curve (AUMC) divided by AUC. The dose-normalized PK parameters e.g., Cmax/D and AUClast/D, were obtained by dividing each PK result by the administered dose. The cumulative excretion rate was calculated as the amount of unchanged drug in the urine over a time interval divided by the dose and was expressed as thousand points (‰)."}, "CYP3A4": {"tested_on": "CYP3A4", "parameters": "method as in Xiao et al., 2016", "conditions": "human liver microsomes, human recombinant CYPs; ref Xiao et al., 2016; cited from earlier work"}},
  "note": "Where “and” joins values, the source holds several entries; their conditions need not be identical. Equal entries are not always repeated.",
  "data": [
    {"smiles": "CC(C)=CCC[C@](C)(OC1O[C@H](CO)[C@@H](O)[C@H](O)[C@H]1O)[C@H]1CC[C@]2(C)[C@@H]1[C@H](O)C[C@@H]1[C@@]3(C)CC[C@H](O)C(C)(C)[C@@H]3CC[C@]12C", "note": "(stereo partly drawn) [CK, 20-O-beta-D-glucopyranosyl-20(S)-protopanaxadiol]", "values": [
      {"measurement": "Ae, accumulative urine excretion rate", "setting": "[1]; 25 mg oral", "value": "0.41 ± 0.29 ‰"},
      {"measurement": "Ae, accumulative urine excretion rate", "setting": "[1]; 50 mg oral", "value": "0.46 ‰ and 0.46 ± 0.34 ‰"},
      {"measurement": "Ae, accumulative urine excretion rate", "setting": "[1]; 100 mg oral", "value": "0.25 ± 0.13 ‰"},
      {"measurement": "Ae, accumulative urine excretion rate", "setting": "[1]; 200 mg oral", "value": "0.27 ± 0.15 ‰"},
      {"measurement": "Ae, accumulative urine excretion rate", "setting": "[1]; 400 mg oral", "value": "0.19 ± 0.13 ‰"},
      {"measurement": "Ae, accumulative urine excretion rate", "setting": "[1]; 600 mg oral", "value": "0.10 ‰ and 0.10 ± 0.08 ‰"},
      {"measurement": "Ae, accumulative urine excretion rate", "setting": "[1]; 800 mg oral", "value": "0.10 ‰ and 0.10 ± 0.04 ‰"},
      {"measurement": "inhibition of CYP3A4", "setting": "CYP3A4", "value": "moderate inhibitor"},
      {"measurement": "substrate of CYP3A4", "setting": "CYP3A4", "value": "substrate"}
    ]}
  ]
}
